According to paper PMC7400207, “It Takes Two: Dimerization Is Essential for the Broad-Spectrum Predatory and Defensive Activities of the Venom Peptide Mp1a from the Jack Jumper Ant Myrmecia pilosula” (Biomedicines, 2020):
Marks after values point to notes of the source that are not given here.

Key:
F11 cells = assay: FLIPR calcium assay, activation of F11 cells; type: cell-based; conditions: for Concentration at which cytolysis (rapid increase in fluorescence followed by decrease to or below baseline) was observed / EC50 / Neuronal Cell Activation (EC50): F11 cells, FLIPR; for EC50 / Neuronal Cell Activation (EC50): Calcium 4 dye, max-min fluorescence in 300 s after peptide addition, PSS with 0.1% BSA, mean ± SEM, triplicate; for EC50: read-out: Neuronal Cell Activation (EC50)
Protocol: F11 cells were cultured as previously described. Cells were maintained on Ham’s F12 media supplemented with 10% fetal bovine serum (FBS), 100 µM hypoxanthine, 0.4 µM aminopterin, and 16 µM thymidine (Hybri-MaxTM, Sigma Aldrich, North Ryde, Australia). Then, 384-well imaging plates (Corning) were seeded 48 h prior to imaging resulting in 90–95% confluence at imaging. Cells were incubated for 30 min with the Calcium 4 assay component A according to the manufacturer’s instructions (Molecular Devices, Sunnyvale, CA, USA) in physiological salt solution (PSS; composition in mM: 140 NaCl, 11.5 D-glucose, 5.9 KCl, 1.4 MgCl2, 1.2 NaH2PO4, 5 NaHCO3, 1.8 CaCl2, 10 HEPES) at 37°C. Fluorescence was measured using a fluorescent imaging plate reader (FLIPR^TETRA) equipped with a CCD camera (Excitation: 470–490 nm, Emission: […]) (Molecular Devices, Sunnyvale, CA, USA). Signals were read every second for 10 s before, and 300 s after the addition of peptides in PSS supplemented with 0.1% bovine serum albumin. All data are the mean ± SEM of assays performed in triplicate. Maximum–minimum fluorescence in the 300 s period after peptide addition was recorded as the response. Concentration–response data were fitted with a four-parameter Hill equation (variable slope) using GraphPad Prism 8 to obtain effective concentration (EC50) values.

Haemonchus contortus = assay: microbe, parasite or virus in culture; type: cell-based; conditions: for IC50: H. contortus Kirby isolate, egg to infective L3, 6 days, 26 °C, three experiments of duplicate assays, ± SEM, for 1a the component at higher concentrations (about 90% of population), read-out: Anthelmintic Activity (IC50), inhibition of larval development; for Fold less active than levamisole (IC50 higher): larval development, drug-susceptible isolate
Protocol: Sheep were infected with H. contortus Kirby isolate (field isolate from the University of New England Kirby Research Farm in 1986; susceptible to all commercial anthelmintics) and housed at the Commonwealth Scientific and Industrial Research Organisation (CSIRO) FD McMaster Laboratory, Armidale, NSW. All animal procedures were approved by the FD McMaster Animal Ethics Committee, CSIRO (Approval Number AEC 17/12, approval date 15.6.2017). Eggs were prepared from overnight fecal collection as described. In brief, feces were filtered through mesh filters, settled, and supernatant removed by vacuum. Eggs were recovered by density centrifugation using 10 and 25% (w/v) sucrose solutions, centrifuged at 650× g for 7 min. Eggs were recovered from the interface of the two sucrose layers, rinsed with distilled water, sterilized with bleach, rinsed again, and diluted to 4500 eggs/mL. Tylosin tartrate (800 μg/mL) and amphotericin B (25.0 μg/mL) were added, and eggs were used immediately for larval development assays.
Assays were conducted using 96-well microtitre plates, with each well containing 50 μL of 2% agar, 20 μL of egg solution and 20 μL of peptide solution in water. The commercial anthelmintic levamisole (Sigma Aldrich) was used as a positive control (final 1% v/v). Negative controls contained equivalent volumes of water or DMSO (final 1% v/v). Plates were incubated at 26 °C for six days. After 24 h, each well was fed with 10 μL of a nutrient solution containing Escherichia coli XL1-Blue1 (grown overnight at 37 °C) and growth medium. The growth medium consisted of yeast extract (1% w/v), Earle’s salt solution (10% v/v), saline solution (0.9% NaCl, w/v), and sodium bicarbonate (1 mM) in Luria-Bertani medium (LB). Larvae were killed and stained with Lugol’s iodine solution after six days. Larvae that had developed to the infective L3 stage were counted, and the numbers in treated assay wells were expressed as a percentage of the number of infective L3 stage larvae in multiple control wells. Concentrations that caused 50% inhibition (IC50 values) were calculated from three experiments of duplicate assays.

Drosophila melanogaster = Drosophila melanogaster microinjection assay; type: in vivo; conditions: intrathoracic injection, 50 nL, adult female flies, lethality at 24 h; three dose-response curves, ± SEM
Protocol: The insecticidal activity of the chemically synthesized 1a and analogues thereof were determined by injection into adult female D. melanogaster aged 3–5 days (mass 0.7–0.9 mg) as described previously. Analogues were dissolved in water and intrathoracically injected using pulled glass capillaries at a volume of 50 nL per fruit fly, and the results were compared against an equivalent injection volume of water alone. All injections were performed in the morning or early afternoon. At 24 h post-injection flies were monitored for lethality. Dose–response curves were constructed using 7–10 doses per analogue (each dose tested in eight flies) and three separate dose–response curves were constructed for each analogue. The lethality in the groups receiving the analogues were adjusted using the respective control group lethality using the Henderson-Tilton formula [20]. The median lethal dose (LD50) of each analogue was calculated based on the three dose–response curves using GraphPad Prism 8.0 [21]. One-way ANOVA followed by Dunnett’s multiple comparison test were used to compare LD50 values.

HEK293 cells = conditions: HEK293, 24 h, resazurin; cited from earlier work
Protocol: (§1) Table 2 Summary of bioassay data for synthetic Mp1a and analogues, including effective concentration (EC50) for activation of F11 cells, concentrations that caused 50% inhibition (IC50) for inhibition of larval development of H. contortus; median lethal dose (LD50) for lethal insecticidal effects on D. melanogaster; concentrations required to induce 50% cell death (CC50) for effects on viability o | column: Cytotoxicity (CC50 µM) ^b

human red blood cells = conditions: cited from earlier work
Protocol: as §1, with “Hemolysis (HC50” for “Cytotoxicity (CC50”

| Compound | Concentration at which cytolysis (rapid increase in fluorescence followed by decrease to or below baseline) was observed (F11 cells) | EC50 (F11 cells) | Fold less active than native Mp1a (1a), F11 cell activation (F11 cells; ratio of EC50 values) | IC50 (Haemonchus contortus) | Insecticidal Activity (LD50) (Drosophila melanogaster) | Cytotoxicity (CC50) (HEK293 cells) | Hemolysis (HC50) (human red blood cells) | Fold less active than levamisole (IC50 higher) (Haemonchus contortus) | Neuronal Cell Activation (EC50) (F11 cells) |
| --- | --- | --- | --- | --- | --- | --- | --- | --- | --- |
| CC[C@H](C)[C@H](N)C(=O)N[C@@H](CC(=O)O)C(=O)N[C@@H](Cc1c[nH]c2ccccc12)C(=O)N[C@@H](CCCCN)C(=O)N[C@@H](CCCCN)C(=O)N[C@H](C(=O)N[C@@H](CC(=O)O)C(=O)N[C@@H](Cc1c[nH]c2ccccc12)C(=O)N[C@@H](CCCCN)C(=O)N[C@@H](CCCCN)C(=O)N[C@H](C(=O)N[C@@H](CO)C(=O)N[C@@H](CCCCN)C(=O)N[C@@H](CCCCN)C(=O)N[C@H](C(=O)N[C@H]1CSSC[C@H](NC(=O)[C@@H](NC(=O)CNC(=O)[C@H](CCCCN)NC(=O)[C@H](CO)NC(=O)[C@@H](NC(=O)[C@H](CC(C)C)NC(=O)CNC(=O)[C@@H](NC(=O)[C@@H](N)CC(C)C)[C@@H](C)CC)C(C)C)[C@@H](C)O)C(=O)N[C@@H](C(C)C)C(=O)N[C@@H](CC(C)C)C(=O)N[C@@H](C(C)C)C(=O)N[C@@H](CCCCN)C(=O)N[C@@H]([C@@H](C)O)C(=O)N[C@@H](C(C)C)C(=O)N[C@H](C(=O)N[C@@H](CCCCN)C(=O)N[C@@H](CCCCN)C(=O)N[C@H](C(=O)N[C@@H](CC(C)C)C(=O)N[C@@H](CCCCN)C(=O)N[C@@H](CCC(N)=O)C(N)=O)C(C)C)CSSC[C@@H](C(=O)N[C@@H](CCCCN)C(=O)N[C@@H](Cc2ccccc2)C(=O)N[C@@H](CC(C)C)C(N)=O)NC(=O)[C@H](C)NC(=O)[C@H](CCCCN)NC(=O)[C@H](CC(C)C)NC(=O)[C@H](CCSC)NC(=O)[C@H](C(C)C)NC(=O)[C@H](CCCCN)NC1=O)[C@@H](C)O)C(C)C)C(C)C [Analogue 2a] | ≥ 1 µM | 900 ± 80 nM | equipotent | 35.8 ± 1.9 µM | > 600 pmol/g | > 10 µM | > 10 µM |  |  |
| CC[C@H](C)[C@H](N)C(=O)N[C@@H](CC(=O)O)C(=O)N[C@@H](Cc1c[nH]c2ccccc12)C(=O)N[C@@H](CCCCN)C(=O)N[C@@H](CCCCN)C(=O)N[C@H](C(=O)N[C@@H](CC(=O)O)C(=O)N[C@@H](Cc1c[nH]c2ccccc12)C(=O)N[C@@H](CCCCN)C(=O)N[C@@H](CCCCN)C(=O)N[C@H](C(=O)N[C@@H](CO)C(=O)N[C@@H](CCCCN)C(=O)N[C@@H](CCCCN)C(=O)N[C@H](C(=O)N[C@H]1CSSC[C@@H](C(=O)N[C@@H](CCCCN)C(=O)N[C@@H](CCCCN)C(=O)N[C@H](C(=O)N[C@@H](CC(C)C)C(=O)N[C@@H](CCCCN)C(=O)N[C@@H](CCC(N)=O)C(N)=O)C(C)C)NC(=O)[C@H](C(C)C)NC(=O)[C@H]([C@@H](C)O)NC(=O)[C@H](CCCCN)NC(=O)[C@H](C(C)C)NC(=O)[C@H](CC(C)C)NC(=O)[C@H](C(C)C)NC(=O)[C@@H](NC(=O)[C@@H](NC(=O)CNC(=O)[C@H](CCCCN)NC(=O)[C@H](CO)NC(=O)[C@@H](NC(=O)[C@H](CC(C)C)NC(=O)CNC(=O)[C@@H](NC(=O)[C@@H](N)CC(C)C)[C@@H](C)CC)C(C)C)[C@@H](C)O)CSSC[C@@H](C(=O)N[C@@H](CCCCN)C(=O)N[C@@H](Cc2ccccc2)C(=O)N[C@@H](CC(C)C)C(N)=O)NC(=O)[C@H](C)NC(=O)[C@H](CCCCN)NC(=O)[C@H](C)NC(=O)[C@H](CCSC)NC(=O)[C@H](C(C)C)NC(=O)[C@H](CCCCN)NC1=O)[C@@H](C)O)C(C)C)C(C)C [Analogue 1d] | ≥ 1 µM | 3380 ± 2800 nM |  | 9.5 ± 0.3 µM | 578 ± 9.7 ^a pmol/g | 0.7 µM | > 12 µM | approximately 10 fold |  |
| CC[C@H](C)[C@H](N)C(=O)N[C@@H](CC(=O)O)C(=O)N[C@@H](Cc1c[nH]c2ccccc12)C(=O)N[C@@H](CCCCN)C(=O)N[C@@H](CCCCN)C(=O)N[C@H](C(=O)N[C@@H](CC(=O)O)C(=O)N[C@@H](Cc1c[nH]c2ccccc12)C(=O)N[C@@H](CCCCN)C(=O)N[C@@H](CCCCN)C(=O)N[C@H](C(=O)N[C@@H](CO)C(=O)N[C@@H](CCCCN)C(=O)N[C@@H](CCCCN)C(=O)N[C@H](C(=O)N[C@H]1CSSC[C@@H](C(=O)N[C@@H](CCCCN)C(=O)N[C@@H](CCCCN)C(=O)N[C@H](C(=O)N[C@@H](CC(C)C)C(=O)N[C@@H](CCCCN)C(=O)N[C@@H](CCC(N)=O)C(N)=O)C(C)C)NC(=O)[C@H](C(C)C)NC(=O)[C@H]([C@@H](C)O)NC(=O)[C@H](CCCCN)NC(=O)[C@H](C)NC(=O)[C@H](CC(C)C)NC(=O)[C@H](C(C)C)NC(=O)[C@@H](NC(=O)[C@@H](NC(=O)CNC(=O)[C@H](CCCCN)NC(=O)[C@H](CO)NC(=O)[C@@H](NC(=O)[C@H](CC(C)C)NC(=O)CNC(=O)[C@@H](NC(=O)[C@@H](N)CC(C)C)[C@@H](C)CC)C(C)C)[C@@H](C)O)CSSC[C@@H](C(=O)N[C@@H](CCCCN)C(=O)N[C@@H](Cc2ccccc2)C(=O)N[C@@H](CC(C)C)C(N)=O)NC(=O)[C@H](C)NC(=O)[C@H](CCCCN)NC(=O)[C@H](CC(C)C)NC(=O)[C@H](CCSC)NC(=O)[C@H](C(C)C)NC(=O)[C@H](CCCCN)NC1=O)[C@@H](C)O)C(C)C)C(C)C [Analogue 1c] | ≥ 1 µM | 1390 ± 340 nM |  | 7.2 ± 0.1 µM | 552.7 ± 18.2 ^a pmol/g | 0.7 µM | > 12 µM | approximately 10 fold |  |
| H-IDWKKVDWKKVSKKTSKVMLKASKFL-NH2 [Analogue 3b] |  |  |  | 64.9 ± 6.3 µM | > 600 pmol/g | > 20 µM | > 20 µM |  | inactive |
| H-LIGLVSKGTSVLVKTVSKKVLKQ-NH2 [Analogue 4b] |  |  |  | 61.3 ± 4.4 µM | > 600 pmol/g | > 15 µM | > 15 µM |  | inactive |
